Molecular target: PI3Kδ (p110δ/p85α) (Homo sapiens (Human), UniProt O00329)
Assay: PI3Kδ scintillation proximity assay (Example A3)
Type: biochemical
Settings: 20 μM ATP, 20 μM PIP2, 4 nM PI3Kδ; read-out: PI3Kδ SPA IC50
Protocol: [γ-^33P]ATP (10 mCi/mL) was purchased from Perkin-Elmer (Waltham, Mass.). […] PI3Kδ (p110δ/p85α) was purchased from Millipore (Bedford, Mass.). ATP, MgCl2, DTT, EDTA, MOPS and CHAPS were purchased from Sigma-Aldrich (St. Louis, Mo.). Wheat Germ Agglutinin (WGA) YSi SPA Scintillation Beads was purchased from GE healthcare life sciences (Piscataway, N.J.).
The kinase reaction was conducted in polystyrene 384-well matrix white plate from Thermo Fisher Scientific in a final volume of 25 μL. Inhibitors were first diluted serially in DMSO and added to the plate wells before the addition of other reaction components. The final concentration of DMSO in the assay was 0.5%. The PI3K assays were carried out at room temperature in 20 mM MOPS, pH 6.7, 10 mM MgCl2, 5 mM DTT and CHAPS 0.03%. Reactions were initiated by the addition of ATP, the final reaction mixture consisted of 20 μM PIP2, 20 μM ATP, 0.2 μCi [γ-^33P]ATP, 4 nM PI3Kδ. […] 25 mM EDTA, 400 μM ATP. The final concentration of SPA beads was 1.0 mg/mL. After the plate sealing, plates were shaken overnight at room temperature and centrifuged at 1800 rpm for 10 minutes, the radioactivity of the product was determined by scintillation counting on Topcount (Perkin-Elmer). IC50 determination was performed by fitting the curve of percent control activity versus the log of the inhibitor concentration using the GraphPad Prism 3.0 software.

PI3Kδ (p110δ/p85α), sequence (O00329 whole entry): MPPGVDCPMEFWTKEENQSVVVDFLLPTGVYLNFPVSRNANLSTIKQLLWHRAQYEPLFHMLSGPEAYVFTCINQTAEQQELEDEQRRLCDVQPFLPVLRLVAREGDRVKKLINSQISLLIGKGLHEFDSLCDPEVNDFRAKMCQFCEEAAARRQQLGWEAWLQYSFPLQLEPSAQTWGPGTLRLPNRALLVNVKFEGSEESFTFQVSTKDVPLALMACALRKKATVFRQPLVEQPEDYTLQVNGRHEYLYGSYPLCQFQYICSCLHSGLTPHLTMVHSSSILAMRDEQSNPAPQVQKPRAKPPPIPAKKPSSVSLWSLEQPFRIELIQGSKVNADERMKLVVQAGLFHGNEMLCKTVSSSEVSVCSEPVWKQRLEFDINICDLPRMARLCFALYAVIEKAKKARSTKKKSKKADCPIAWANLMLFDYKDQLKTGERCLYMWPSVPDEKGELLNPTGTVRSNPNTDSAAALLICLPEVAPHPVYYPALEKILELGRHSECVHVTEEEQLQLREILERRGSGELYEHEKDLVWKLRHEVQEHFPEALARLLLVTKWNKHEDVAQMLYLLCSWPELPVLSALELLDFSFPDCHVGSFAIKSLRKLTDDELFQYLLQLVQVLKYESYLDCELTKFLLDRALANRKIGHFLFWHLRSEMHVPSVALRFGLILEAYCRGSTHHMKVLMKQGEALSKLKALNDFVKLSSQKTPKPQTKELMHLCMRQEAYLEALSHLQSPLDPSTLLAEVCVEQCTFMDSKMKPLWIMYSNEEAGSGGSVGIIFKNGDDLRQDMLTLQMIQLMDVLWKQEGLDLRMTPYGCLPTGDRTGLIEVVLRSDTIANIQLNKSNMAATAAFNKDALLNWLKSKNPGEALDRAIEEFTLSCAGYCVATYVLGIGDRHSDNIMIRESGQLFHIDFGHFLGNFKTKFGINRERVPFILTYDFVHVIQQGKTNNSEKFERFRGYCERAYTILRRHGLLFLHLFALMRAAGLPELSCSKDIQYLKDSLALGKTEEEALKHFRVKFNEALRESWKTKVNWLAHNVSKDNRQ
PI3Kδ (p110δ/p85α), sequence (P27986 whole entry partner): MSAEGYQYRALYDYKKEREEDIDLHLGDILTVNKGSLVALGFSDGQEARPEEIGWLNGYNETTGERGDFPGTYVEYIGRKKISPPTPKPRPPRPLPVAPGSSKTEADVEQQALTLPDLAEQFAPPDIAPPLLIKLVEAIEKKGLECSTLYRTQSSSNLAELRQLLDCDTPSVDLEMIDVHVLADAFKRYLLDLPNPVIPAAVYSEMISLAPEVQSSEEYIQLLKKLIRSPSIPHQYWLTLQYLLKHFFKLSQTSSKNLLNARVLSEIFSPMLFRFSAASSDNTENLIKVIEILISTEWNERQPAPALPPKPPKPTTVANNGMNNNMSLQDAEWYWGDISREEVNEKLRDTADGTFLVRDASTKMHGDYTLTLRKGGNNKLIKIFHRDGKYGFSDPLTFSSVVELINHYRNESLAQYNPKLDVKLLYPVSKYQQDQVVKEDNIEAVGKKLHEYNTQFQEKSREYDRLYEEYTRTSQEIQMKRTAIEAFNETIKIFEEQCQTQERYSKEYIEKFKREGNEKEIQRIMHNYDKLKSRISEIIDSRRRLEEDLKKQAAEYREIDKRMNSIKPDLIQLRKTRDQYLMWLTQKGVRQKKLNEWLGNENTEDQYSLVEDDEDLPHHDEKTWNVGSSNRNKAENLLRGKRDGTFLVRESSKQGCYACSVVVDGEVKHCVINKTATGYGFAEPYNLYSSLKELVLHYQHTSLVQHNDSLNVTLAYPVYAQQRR

Compound	IC50
2-(4-(3-(1-(4-Amino-3-methyl-1H-pyrazolo[3,4-d]pyrimidin-1-yl)ethyl)-5-chloro-2-ethoxy-6-methylphenyl)-1H-pyrazol-1-yl) acetamide [Example 203]	≤ 10 nM
COc1c(C(C)n2nc(C)c3c(N)ncnc32)cc(Cl)c(C)c1C1CN(CC2CC2)C1 (racemic) [Example 4, 1-(1-{5-Chloro-3-[1-(cyclopropylmethyl)azetidin-3-yl]-2-methoxy-4-methylphenyl}ethyl)-3-methyl-1H-pyrazolo[3,4-d]pyrimidin-4-amine bis(trifluoroacetate)]	≤ 10 nM
COc1c(C(C)n2ccc(=O)c3c(N)ncnc32)cc(Cl)c(C)c1-c1cncc(S(C)(=O)=O)c1 (racemic) [Example 26, 4-Amino-8-(1-{5-chloro-2-methoxy-4-methyl-3-[5-(methylsulfonyl)pyridin-3-yl]phenyl}ethyl)pyrido[2,3-d]pyrimidin-5(8H)-one bis(trifluoroacetate)]	≤ 10 nM
COc1c(C(C)n2ccc(=O)c3c(N)ncnc32)cc(Cl)c(C)c1-c1cncc(C#N)c1 (racemic) [Example 27, 5-{3-[1-(4-Amino-5-oxopyrido[2,3-d]pyrimidin-8(5H)-yl)ethyl]-5-chloro-2-methoxy-6-methylphenyl}nicotinonitrile bis(trifluoroacetate)]	≤ 10 nM
COc1c(C(C)n2ccc(=O)c3c(N)ncnc32)cc(Cl)c(C)c1-c1cncnc1 (racemic) [Example 29, 4-Amino-8-[1-(5-chloro-2-methoxy-4-methyl-3-pyrimidin-5-ylphenyl)ethyl]pyrido[2,3-d]pyrimidin-5(8H)-one bis(trifluoroacetate)]	≤ 10 nM
COc1c(C(C)n2ccc(=O)c3c(N)ncnc32)cc(Cl)c(C)c1-c1cccc(C(=O)N(C)C)c1 (racemic) [Example 30, 3′-[1-(4-Amino-5-oxopyrido[2,3-d]pyrimidin-8(5H)-yl)ethyl]-5′-chloro-2′-methoxy-N,N,6′-trimethylbiphenyl-3-carboxamide bis(trifluoroacetate)]	≤ 10 nM
COc1c(C(C)n2ccc(=O)c3c(N)ncnc32)cc(Cl)c(C)c1-c1cncc(F)c1 (racemic) [Example 31, 4-Amino-8-{1-[5-chloro-3-(5-fluoropyridin-3-yl)-2-methoxy-4-methylphenyl]ethyl}pyrido[2,3-d]pyrimidin-5(8H)-one bis(trifluoroacetate)]	≤ 10 nM
COc1c(C(C)n2ccc(=O)c3c(N)ncnc32)cc(Cl)c(C)c1-c1cccc(S(=O)(=O)N(C)C)c1 (racemic) [Example 32, 3′-[1-(4-Amino-5-oxopyrido[2,3-d]pyrimidin-8(5H)-yl)ethyl]-5′-chloro-2′-methoxy-N,N,6′-trimethylbiphenyl-3-sulfonamide bis(trifluoroacetate)]	≤ 10 nM
CCOc1c(C(C)n2ccc(=O)c3c(N)ncnc32)cc(Cl)c(C)c1C1CN(C(C)C)C1 (racemic) [Example 35, 4-Amino-8-{1-[5-chloro-2-ethoxy-3-(1-isopropylazetidin-3-yl)-4-methylphenyl]ethyl}pyrido[2,3-d]pyrimidin-5(8H)-one bis(trifluoroacetate)]	≤ 10 nM
COc1c(C(C)n2ncc3c(N)ncnc32)cc(Cl)c(C)c1-c1ccnc(C(=O)NCCO)c1 (racemic) [Example 39, 4-{3-[1-(4-amino-1H-pyrazolo[3,4-d]pyrimidin-1-yl)ethyl]-5-chloro-2-methoxy-6-methylphenyl}-N-(2-hydroxyethyl)pyridine-2-carboxamide]	50 to 200 nM
COc1c(C(C)n2nc(C)c3c(N)ncnc32)cc(C#N)c(C)c1-c1ccnc(C(=O)N(C)CCO)c1 (racemic) [Example 40, 4-{3-[1-(4-amino-3-methyl-1H-pyrazolo[3,4-d]pyrimidin-1-yl)ethyl]-5-cyano-2-methoxy-6-methylphenyl}-N-(2-hydroxyethyl)-N-methylpyridine-2-carboxamide]	10 to 50 nM
COc1c(C(C)n2nc(C)c3c(N)nccc32)cc(Cl)c(C)c1-c1ccc(C(=O)N(C)C)nc1 (racemic) [Example 41, 5-{3-[1-(4-Amino-3-methyl-1H-pyrazolo[4,3-c]pyridin-1-yl)ethyl]-5-chloro-2-methoxy-6-methylphenyl}-N,N-dimethylpyridine-2-carboxamide bis(trifluoroacetate)]	50 to 200 nM

Next, values leading:

IC50	Compound
≤ 10 nM	COc1c(C(C)n2nc(C)c3c(N)ncnc32)cc(Cl)c(C)c1-c1ccnc(C(=O)N(C)CCO)c1 (racemic) [Example 19, 4-{3-[1-(4-amino-3-methyl-1H-pyrazolo[3,4-d]pyrimidin-1-yl)ethyl]-5-chloro-2-methoxy-6-methylphenyl}-N-(2-hydroxyethyl)-N-methylpyridine-2-carboxamide]
≤ 10 nM	CNC(=O)c1ccc(-c2c(C)c(Cl)cc(C(C)n3ccc(=O)c4c(N)ncnc43)c2OC)cn1 (racemic) [Example 33, 5-{3-[1-(4-amino-5-oxopyrido[2,3-d]pyrimidin-8(5H)-yl)ethyl]-5-chloro-2-methoxy-6-methylphenyl}-N-methylpyridine-2-carboxamide bis(trifluoroacetate)]
10 to 50 nM	COc1c(C(C)n2ncc3c(N)ncnc32)cc(Cl)c(C)c1-c1ccnc(C(=O)N(C)C)c1 (racemic) [Example 38, 4-{3-[1-(4-amino-1H-pyrazolo[3,4-d]pyrimidin-1-yl)ethyl]-5-chloro-2-methoxy-6-methylphenyl}-N,N-dimethylpyridine-2-carboxamide]
≤ 10 nM	CCOc1c(C(C)n2nc(-c3cccc(F)c3)c3c(N)ncnc32)cc(Cl)c(C)c1-c1ccc(C(=O)N(C)C)nc1 (racemic) [Example 47, 5-(3-{1-[4-amino-3-(3-fluorophenyl)-1H-pyrazolo[3,4-d]pyrimidin-1-yl]ethyl}-5-chloro-2-ethoxy-6-methylphenyl)-N,N-dimethylpyridine-2-carboxamide bis(trifluoroacetate)]
≤ 10 nM	CCOc1c(C(C)n2nc(-c3cn[nH]c3)c3c(N)ncnc32)cc(Cl)c(C)c1-c1ccc(C(=O)N(C)C)nc1 (racemic) [Example 48, 5-(3-{1-[4-amino-3-(1H-pyrazol-4-yl)-1H-pyrazolo[3,4-d]pyrimidin-1-yl]ethyl}-5-chloro-2-ethoxy-6-methylphenyl)-N,N-dimethylpyridine-2-carboxamide bis(trifluoroacetate)]
≤ 10 nM	CCOc1c(C(C)n2nc(-c3cnn(C)c3)c3c(N)ncnc32)cc(Cl)c(C)c1-c1ccc(C(=O)N(C)C)nc1 (racemic) [Example 49, 5-(3-{1-[4-amino-3-(1-methyl-1H-pyrazol-4-yl)-1H-pyrazolo[3,4-d]pyrimidin-1-yl]ethyl}-5-chloro-2-ethoxy-6-methylphenyl)-N,N-dimethylpyridine-2-carboxamide bis(trifluoroacetate)]
≤ 10 nM	CCOc1c(C(C)n2nc(-c3cc[nH]n3)c3c(N)ncnc32)cc(Cl)c(C)c1-c1ccc(C(=O)N(C)C)nc1 (racemic) [Example 51, 5-(3-{1-[4-amino-3-(1H-pyrazol-3-yl)-1H-pyrazolo[3,4-d]pyrimidin-1-yl]ethyl}-5-chloro-2-ethoxy-6-methylphenyl)-N,N-dimethylpyridine-2-carboxamide bis(trifluoroacetate)]
